Tests used:
Test in all cases: relative viability (nuclei count vs DMSO), 5 days (fraction); higher = more cells survive
[1] = system: NCI-H1437
Summary of the method: (§1)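 Relative viability is defined as nuclei in treated wells over nuclei in vehicle wells. Duplicate plates were run and medians reported. Lung cancer cell lines in 1536-well plates were dosed by pin tool one day after seeding, with one drug or with a fixed anchor-drug dose plus five library-drug doses (not always all listed) in √10 steps, and nuclei were counted after 5 days.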

[2] = system: NCI-H1755
Summary of the method: as §1

[3] = system: NCI-H2405
Summary of the method: as §1

[4] = system: NCI-H322M
Summary of the method: as §1

[5] = system: NCI-H727
Summary of the method: as §1

[6] = system: LOU-NH91
Summary of the method: as §1

[7] = system: ChaGo-K-1
Summary of the method: as §1

[8] = system: ABC-1
Summary of the method: as §1

[9] = system: NCI-H2009
Summary of the method: as §1

[10] = system: HCC-78
Summary of the method: as §1

[11] = system: NCI-H441
Summary of the method: as §1

**Q.** Which relative viability ([1]; first compound 0.08 µM) does the source give for `O=c1[nH]c2ccccc2n1C1CCN(CCCC(c2ccc(F)cc2)c2ccc(F)cc2)CC1` [Pimozide] + COc1cc2c(Oc3ccc(NC(=O)C4(C(=O)Nc5ccc(F)cc5)CC4)cc3F)ccnc2cc1OCCCN1CCOCC1 [Foretinib] (partner 0.25 µM) here?
**A.** 1.27

**Q.** What about the relative viability ([1]; first compound 0.253 µM) of the same molecule?
**A.** 1.21

**Q.** And the relative viability ([1]; first compound 0.8 µM)?
**A.** 1.21

**Q.** And the relative viability ([1]; first compound 2.53 µM)?
**A.** 1.28

**Q.** And the relative viability ([1]; first compound 8 µM)?
**A.** 1.18

**Q.** And the relative viability ([2]; first compound 0.08 µM)?
**A.** 0.929

**Q.** What about the relative viability ([2]; first compound 0.253 µM) of the same molecule?
**A.** 0.928

**Q.** And the relative viability ([2]; first compound 0.8 µM)?
**A.** 0.874

**Q.** What about the relative viability ([2]; first compound 2.53 µM) of the same molecule?
**A.** 0.948

**Q.** What about the relative viability ([2]; first compound 8 µM) of the same molecule?
**A.** 0.812

**Q.** What about the relative viability ([3]; first compound 0.08 µM) of the same molecule?
**A.** 1.03

**Q.** What about the relative viability ([3]; first compound 0.253 µM) of the same molecule?
**A.** 1.02

**Q.** What about the relative viability ([3]; first compound 0.8 µM) of the same molecule?
**A.** 1.04

**Q.** And the relative viability ([3]; first compound 2.53 µM)?
**A.** 0.961

**Q.** What about the relative viability ([3]; first compound 8 µM) of the same molecule?
**A.** 0.838

**Q.** What about the relative viability ([4]; first compound 0.253 µM) of the same molecule?
**A.** 1.04

**Q.** And the relative viability ([4]; first compound 0.8 µM)?
**A.** 0.85

**Q.** What about the relative viability ([4]; first compound 2.53 µM) of the same molecule?
**A.** 0.942

**Q.** And the relative viability ([4]; first compound 8 µM)?
**A.** 0.844

**Q.** And the relative viability ([5]; first compound 0.08 µM)?
**A.** 0.679

**Q.** And the relative viability ([5]; first compound 0.253 µM)?
**A.** 0.87

**Q.** And the relative viability ([5]; first compound 0.8 µM)?
**A.** 0.798

**Q.** And the relative viability ([5]; first compound 2.53 µM)?
**A.** 0.722

**Q.** And the relative viability ([5]; first compound 8 µM)?
**A.** 0.782

**Q.** And the relative viability ([6]; first compound 0.08 µM)?
**A.** 0.586

**Q.** What about the relative viability ([6]; first compound 0.253 µM) of the same molecule?
**A.** 0.743

**Q.** What about the relative viability ([6]; first compound 0.8 µM) of the same molecule?
**A.** 0.879

**Q.** And the relative viability ([6]; first compound 2.53 µM)?
**A.** 0.944

**Q.** What about the relative viability ([6]; first compound 8 µM) of the same molecule?
**A.** 0.888

**Q.** And the relative viability ([7]; first compound 0.08 µM)?
**A.** 0.937

**Q.** And the relative viability ([7]; first compound 0.253 µM)?
**A.** 0.899

**Q.** And the relative viability ([7]; first compound 0.8 µM)?
**A.** 0.879

**Q.** What about the relative viability ([7]; first compound 2.53 µM) of the same molecule?
**A.** 0.811

**Q.** And the relative viability ([7]; first compound 8 µM)?
**A.** 0.908

**Q.** What about the relative viability ([8]; first compound 0.08 µM) of the same molecule?
**A.** 1.11

**Q.** And the relative viability ([8]; first compound 0.253 µM)?
**A.** 0.995

**Q.** And the relative viability ([8]; first compound 0.8 µM)?
**A.** 0.723

**Q.** And the relative viability ([8]; first compound 2.53 µM)?
**A.** 0.891

**Q.** And the relative viability ([8]; first compound 8 µM)?
**A.** 0.767

**Q.** What about the relative viability ([9]; first compound 0.08 µM) of the same molecule?
**A.** 1.24

**Q.** What about the relative viability ([9]; first compound 0.253 µM) of the same molecule?
**A.** 1.12

**Q.** And the relative viability ([9]; first compound 0.8 µM)?
**A.** 1.19

**Q.** And the relative viability ([9]; first compound 2.53 µM)?
**A.** 1.09

**Q.** What about the relative viability ([9]; first compound 8 µM) of the same molecule?
**A.** 1.13

**Q.** And the relative viability ([10]; first compound 0.08 µM)?
**A.** 0.536

**Q.** And the relative viability ([10]; first compound 0.8 µM)?
**A.** 0.482

**Q.** And the relative viability ([10]; first compound 2.53 µM)?
**A.** 0.564

**Q.** What about the relative viability ([10]; first compound 8 µM) of the same molecule?
**A.** 0.573

**Q.** What about the relative viability ([11]; first compound 0.08 µM) of the same molecule?
**A.** 1.09

**Q.** What about the relative viability ([11]; first compound 0.253 µM) of the same molecule?
**A.** 1.16

**Q.** And the relative viability ([11]; first compound 0.8 µM)?
**A.** 1.1

**Q.** And the relative viability ([11]; first compound 2.53 µM)?
**A.** 0.948

**Q.** And the relative viability ([11]; first compound 8 µM)?
**A.** 0.922

Reference: the supplement of paper PMC10307832
